Measurements reported in patent US6680067B2 (priority 2001, dated 2004).
Structures can show the parent of a compound that is named as a salt.

What was measured:
[1] = pharmacokinetics of nalbuphine in rat plasma after intramuscular injection; settings: for k01: hydrochloride
Experimental: Each group consisted of 6 rats and each rat was injected once intramuscularly on the rear leg.

[2] = pharmacokinetics of nalbuphine in beagle plasma after intramuscular injection; settings: for k01: hydrochloride
Sprague-Dawley rats = assay: rat cold ethanol tail-flick test (analgesic effect); format: in vivo; settings: intramuscular, 25 μM/kg, FIG. 5
[3] = Shafer et al. 1991; cited from earlier work
[4] = male, Sprague-Dawley, rat, plasma, im, 24 mg/kg
[5] = beagle, dog, plasma, im, 5 mg/kg
[6] = beagles, i.m., dose 5 mg/kg, n = 5, mean ± S.E.

Oc1ccc2c3c1O[C@H]1[C@@H](O)CC[C@@]4(O)[C@@H](C2)N(CC2CCC2)CC[C@]314 [Nalbuphine-HCl, nalbuphine hydrochloride]
β or k10 ([1]; Sprague-Dawley rats, i.m., 24 mg/kg (FIG. 7), means ± S.E.): 0.43 ± 0.21 h⁻¹
k01 ([1]; Sprague-Dawley rats, i.m., 24 mg/kg (FIG. 7), means ± S.E., 24 mg/kg): 12.1 ± 14.1 h⁻¹
k01 ([1]; Sprague-Dawley rats, i.m., 24 mg/kg (FIG. 7), means ± S.E., listed as nalbuphine hydrochloride, 24 mg/kg): 12.1 ± 14.1 h⁻¹
AUC [1, 4]: 8.04 ± 2.89 µg·h/mL
CL/F [1, 4]: 3.5 L/h/kg
Cmax [1, 4]: 2.23 ± 0.669 µg/mL
MRT [1, 4]: 180 ± 72 min
Tmax [1, 4]: 27 ± 14.4 min
half-life ([1]; male, Sprague-Dawley, rat, plasma, im, 24 mg/kg, t1/2, k01, Sprague-Dawley rats, 24 mg/kg (FIG. 7), means ± S.E.): 8.4 ± 9 min
half-life ([1]; male, Sprague-Dawley, rat, plasma, im, 24 mg/kg, t1/2, β (elimination half-life), Sprague-Dawley rats, 24 mg/kg (FIG. 7), means ± S.E.): 114 ± 48 min
AUC [2, 5]: 1.87 ± 0.203 µg·h/mL
CL/F [2, 5]: 2.8 L/h/kg
Cmax [2, 5]: 2.46 ± 0.755 µg/mL
MRT [2, 5]: 132 ± 30 min
Tmax [2, 5]: 5.4 ± 2.4 min
half-life ([2]; beagle, dog, plasma, im, 5 mg/kg, t1/2, k01, beagles, n = 5, mean ± S.E.): 7.2 ± 4.2 min
half-life ([2]; beagle, dog, plasma, im, 5 mg/kg, t1/2, α, beagles, n = 5, mean ± S.E.): 7.8 ± 6.6 min
half-life ([2]; beagle, dog, plasma, im, 5 mg/kg, t1/2, β (elimination half-life), beagles, n = 5, mean ± S.E.): 168 ± 54 min
α [2, 6]: 67.9 ± 29.3 h⁻¹
β [2, 6]: 0.42 ± 0.15 h⁻¹
k01 ([2]; beagles, i.m., dose 5 mg/kg, n = 5, mean ± S.E., listed as Nal-HCl): 82.5 ± 43.9 h⁻¹
k01 ([2]; beagles, i.m., dose 5 mg/kg, n = 5, mean ± S.E., listed as Nalbuphine HCl): 82.5 ± 43.9 h⁻¹
k01 ([2]; beagles, i.m., dose 5 mg/kg, n = 5, mean ± S.E., listed as nalbuphine hydrochloride): 82.5 h⁻¹
10% analgesic effect (duration) (Sprague-Dawley rats): 2.7 h
50% analgesic effect (duration) (Sprague-Dawley rats): 1.2 h

Oc1ccc2c(c1)[C@@]13CCCC[C@@]1(O)[C@@H](C2)N(CC1CCC1)CC3 [butorphanol]
dose needed to elicit the same analgesic effect [3]: 2 mg

CN1CC[C@]23c4c5ccc(O)c4O[C@H]2[C@@H](O)C=C[C@H]3[C@H]1C5 [morphine]
dose needed to elicit the same analgesic effect [3]: 10 mg
